Measurements: US11434246B2, “EP4 antagonists” (Eisai R&D Management Co., Ltd., priority 2015, dated 2022)

Assays:
4T1 cells = assay: In vivo anti-tumor pharmacology, mouse breast 4T1 syngeneic tumor model
Experimental: In vivo Anti-tumor Pharmacology: 4T1 cells were maintained in RPMI 1640 medium supplemented with 10% FBS at 37° C. and 5% CO2 atmosphere. Cell detachment was obtained using standard trypsinization methods, quantification of cell numbers and viability information using the NC-200 automated cell counter. Compound 1 was thoroughly suspended in 0.5% methyl cellulose (MC) by sonication at 4° C. for 15 min before oral administration (p.o.) to animals. BALB/c mice were injected subcutaneously (s.c.) with live 1×10^5 4 T1 cells. Mice developed tumors of approximately 36 mm^3 in 5 days. 4T1 tumor-bearing mice were randomized and mapped into 5 groups of 10 mice each: group A received vehicle (0.5% MC); group B received 0.1 mg/kg of compound 1; group C received 1 mg/kg of compound 1, group D received 25 mg/kg of compound 1; and group E received 150 mg/kg of compound 1. All treatments were give p.o. daily for 21 consecutive days. Tumor volumes and body weights were measured twice weekly. Study was terminated 27 days after tumor cell injection. Tumor volumes were expressed as mean±SEM. Tumor volume differences among treated mouse groups on day 27 were analyzed by the one-way ANOVA followed by Tukey's test. P≤0.05 values were considered significant.

mouse EP4 receptor = target: T1, mouse EP4 receptor (Mus musculus, UniProt P32240); assay: Competitive Radioligand EP4 Receptor Binding Assay ([3H]-PGE2, U2OS membranes); details: mouse EP4-overexpressing cell membrane fraction, 12 nM [3H]-PGE2; read-out: Ki of inhibition of radiolabelled PGE2 binding, mouse EP4
T1 construct: purchased Genscript; host or cells: U2OS clone
Experimental: (§1) Competitive Radioligand EP4 Receptor Binding Assay: The assay was performed using ChemiScreen recombinant human EP4 receptor membrane preparations from Millipore using Chem-1 cells and mouse EP4 receptor membrane preparations from Genscript using U2OS clone, according to manufacturer's instructions. For human EP4 binding, 10 μg Chem-1 cell membranes overexpressing human EP4 cDNA were mixed with 12 nM [^3H]-PGE2 and 5 μmol/L unlabeled PGE2 or 0.1% DMSO in the presence or absence of various concentrations of testing compounds in binding buffer (50 mM HEPES, pH 7.4, 5 mM MgCl2, 1 mM CaCl2, 0.2% BSA) in a nonbinding 96-well plate, and incubated for 2 h at room temperature. For mouse EP4 binding, 60 μg of U2OS membranes were used in the same condition. Prior to filtration, a GF/C 96-well filter plate was coated with 0.33% polyethyleneimine for 30 min, then washed with 50 mM HEPES, pH 7.4, 0.5% BSA. Binding reactions were transferred to the filter plate, and washed 3 times with assay Wash Buffer (50 mM HEPES, pH7.4, 500 mM NaCl, 0.1% BSA). The plate was dried and radioactivity counted. The data were processed using PRISM software, and IC50 and Ki values were calculated using the same software.

EP4 [1] = target: T2, EP4 (Homo sapiens, UniProt P35408); assay: Competitive Radioligand EP4 Receptor Binding Assay ([3H]-PGE2, Chem-1 cell membranes); design: purchased Millipore; host or cells: Chem-1 cells; details: human EP4-overexpressing cell membrane fraction, 12 nM [3H]-PGE2; read-out: Ki of inhibition of radiolabelled PGE2 binding, human EP4
Experimental: as §1

EP4 [2] = target: T2, EP4; assay: EP4 Antagonism by CRE-PLAP Reporter Assay (SE302 cells, PGE2-stimulated); format: cell-based; design: HEK293 cells express endogenous EP4; endogenous in cells; host or cells: SE302 (HEK293 clone with CRE-PLAP reporter); details: SE302 (HEK293) cells, 3 ng/mL PGE2, overnight; single or multiple assay average values
Procedure, shortened: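 HEK293-derived SE302 cells with endogenous EP4 and CRE-driven secreted PLAP, in serum-free medium with 0.1% BSA, stimulated overnight with 3 ng/mL PGE2 plus compound. Supernatant PLAP read by luminescence (pH 11 carbonate buffer, 2 h). IC50 from % of control, normalized to DMSO with and without PGE2.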

T2 sequence (P35408 whole entry): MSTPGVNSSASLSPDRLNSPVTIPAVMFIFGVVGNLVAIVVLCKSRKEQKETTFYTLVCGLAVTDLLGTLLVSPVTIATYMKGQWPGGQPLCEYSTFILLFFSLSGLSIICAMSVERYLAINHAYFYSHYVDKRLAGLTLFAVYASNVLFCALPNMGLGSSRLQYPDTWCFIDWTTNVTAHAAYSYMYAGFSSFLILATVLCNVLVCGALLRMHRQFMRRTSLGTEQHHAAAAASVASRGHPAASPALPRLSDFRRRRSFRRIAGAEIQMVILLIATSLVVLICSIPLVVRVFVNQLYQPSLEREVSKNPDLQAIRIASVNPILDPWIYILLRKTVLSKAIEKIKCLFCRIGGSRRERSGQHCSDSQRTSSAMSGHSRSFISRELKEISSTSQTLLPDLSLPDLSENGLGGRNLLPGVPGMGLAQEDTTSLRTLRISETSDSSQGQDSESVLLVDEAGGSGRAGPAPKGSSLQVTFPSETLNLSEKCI
T1 sequence (P32240 whole entry): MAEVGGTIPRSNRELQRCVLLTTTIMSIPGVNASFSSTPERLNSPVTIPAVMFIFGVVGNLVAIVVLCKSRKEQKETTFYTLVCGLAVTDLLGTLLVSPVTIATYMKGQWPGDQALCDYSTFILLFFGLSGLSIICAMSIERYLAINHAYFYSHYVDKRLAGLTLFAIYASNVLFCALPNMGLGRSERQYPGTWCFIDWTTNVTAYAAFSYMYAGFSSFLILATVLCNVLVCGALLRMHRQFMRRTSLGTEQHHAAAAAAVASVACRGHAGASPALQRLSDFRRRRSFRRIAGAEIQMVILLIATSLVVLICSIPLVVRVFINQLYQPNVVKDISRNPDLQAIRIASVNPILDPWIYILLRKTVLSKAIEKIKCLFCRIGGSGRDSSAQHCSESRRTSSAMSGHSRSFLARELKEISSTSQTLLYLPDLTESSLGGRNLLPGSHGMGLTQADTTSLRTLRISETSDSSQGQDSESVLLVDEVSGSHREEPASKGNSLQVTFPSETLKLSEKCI

SMILES | IC50 (EP4 [2]) [nM] | also measured
C[C@H](NC(=O)c1c(C(F)(F)F)nn2c1N(Cc1cccc(C(F)(F)F)c1)CC2)c1ccc(C(=O)O)cc1 [Compound 1, (S)-4-(1-(6-(trifluoromethyl)-1-(3-(trifluoromethyl)benzyl)-2,3-dihydro-1H-imidazo[1,2-b]pyrazole-7-carboxamido)ethyl)benzoic Acid] | 0.34 | gross toxicity judged from animal body weight and overall animal behavior (4T1 cells; 0.1-150 mg/kg p.o. daily for 21 days, BALB/c mice): None of the doses tested showed gross toxicity; tumor growth inhibition (4T1 cells; 0.1 and 1.0 mg/kg p.o. daily for 21 days, day 27): some inhibition was observed, but without statistical significance; tumor growth inhibition (4T1 cells; 25 and 150 mg/kg p.o. daily for 21 days, day 27): Statistically significant inhibition of tumor growth; tumor growth inhibition (4T1 cells; 25 and 150 mg/kg p.o. daily for 21 days, day 27, listed as compound 1): significant and comparable anti-tumor activity; tumor growth inhibition (4T1 cells; BALB/c mice, 4T1 s.c. tumors, p.o. daily for 21 days, range 0.1 mg/kg-150 mg/kg): inhibited the tumor growth in a dose-dependent manner; Ki (mouse EP4 receptor): 26.3 nM; Ki (EP4 [1]): 4.2 nM
C[C@H](NC(=O)c1c(C(F)(F)F)nn2c1N(Cc1cccc(C(F)(F)CO)c1)CC2)c1ccc(C(=O)O)cc1 [Compound 95, (S)-4-(1-(1-(3-(1,1-Difluoro-2-hydroxyethyl)benzyl)-6-(trifluoromethyl)-2,3-dihydro-1H-imidazo[1,2-b]pyrazole-7-carboxamido)ethyl)benzoic Acid] | 4.26 | 
C[C@H](NC(=O)c1c(C(F)(F)F)nn2c1N(Cc1cccc(CCCF)c1)CC2)c1ccc(C(=O)O)cc1 [Compound 96, (S)-4-(1-(1-(3-(3-Fluoropropyl)benzyl)-6-(trifluoromethyl)-2,3-dihydro-1H-imidazo[1,2-b]pyrazole-7-carboxamido)ethyl)benzoic Acid] | 0.866 | 
C[C@H](NC(=O)c1c(C(F)(F)F)nn2c1N(Cc1ccc(CCCF)cc1)CC2)c1ccc(C(=O)O)cc1 [Compound 97, (S)-4-(1-(1-(4-(3-fluoropropyl)benzyl)-6-(trifluoromethyl)-2,3-dihydro-1H-imidazo[1,2-b]pyrazole-7-carboxamido)ethyl)benzoic Acid] | 21.8 | 
C[C@H](NC(=O)c1c(C(F)(F)F)nn2c1N(Cc1ccc(CCCF)c(C(F)(F)F)c1)CC2)c1ccc(C(=O)O)cc1 [Compound 98, (S)-4-(1-(1-(4-(3-Fluoropropyl)-3-(trifluoromethyl)benzyl)-6-(trifluoromethyl)-2,3-dihydro-1H-imidazo[1,2-b]pyrazole-7-carboxamido)ethyl)benzoic Acid] | 17.7 | 
C[C@H](NC(=O)c1c(C(F)(F)F)nn2c1N(Cc1cc(CCCF)cc(C(F)(F)F)c1)CC2)c1ccc(C(=O)O)cc1 [Compound 99, (S)-4-(1-(1-(3-(3-Fluoropropyl)-5-(trifluoromethyl)benzyl)-6-(trifluoromethyl)-2,3-dihydro-1H-imidazo[1,2-b]pyrazole-7-carboxamido)ethyl)benzoic Acid] | 11.6 | 

Second part, led by results:

IC50 (EP4 [2]) [nM] | SMILES | also measured
8.96 | C[C@H](NC(=O)c1c(C(F)(F)CO)nn2c1N(Cc1cccc(C(F)(F)F)c1)CC2)c1ccc(C(=O)O)cc1 [Compound 100, (S)-4-(1-(6-(1,1-Difluoro-2-hydroxyethyl)-1-(3-(trifluoromethyl)benzyl)-2,3-dihydro-1H-imidazo[1,2-b]pyrazole-7-carboxamido)ethyl)benzoic Acid] | 
32.9 | C[C@H](NC(=O)c1c(C(F)(F)F)nn2c1N(Cc1cccc(C(F)(F)F)c1)CC2)c1ccc(C(=O)NC2(C#N)CC2)cc1 [Compound 101, (S)—N-(1-(4-((1-Cyanocyclopropyl)carbamoyl)phenyl)ethyl)-6-(trifluoromethyl)-1-(3-(trifluoromethyl)benzyl)-2,3-dihydro-1H-imidazo[1,2-b]pyrazole-7-carboxamide] | 
39 | COC(=O)c1ccc([C@H](C)NC(=O)c2c(C(F)(F)F)nn3c2N(C(=O)c2ccccc2F)CC3)cc1 [Compound 102] | 
